Laboratory results: ChEMBL document CHEMBL4145659, “Discovery of a Series of Indole-2 Carboxamides as Selective Secreted Phospholipase A2 Type X (sPLA2-X) Inhibitors” (ACS Med Chem Lett, 2018)
Activity calls are given as the source filed them. The rule behind the calls is not given here.

Assays:
[1] = molecular target: T1, Group 10 secretory phospholipase A2 (Homo sapiens, UniProt O15496); test: (§1) Inhibition of recombinant human sPLA2-10 expressed in Escherichia coli BL21(DE3) using 1-palmitoyl-2-oleoyl-sn-glycero-3-phosphocholine as substrate pretreated for 20 mins followed by substrate addition and measured after 60 mins
T1 sequence (O15496 whole entry): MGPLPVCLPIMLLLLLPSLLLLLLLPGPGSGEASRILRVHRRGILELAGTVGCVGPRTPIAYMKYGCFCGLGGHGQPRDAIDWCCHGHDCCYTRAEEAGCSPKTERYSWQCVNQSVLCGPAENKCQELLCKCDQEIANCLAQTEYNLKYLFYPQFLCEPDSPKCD

[2] = molecular target: T2, Phospholipase A2 group V (Homo sapiens) (UniProt P39877); test: Inhibition of recombinant human sPLA2-5 expressed in Escherichia coli BL21(DE3) at 30 uM using 1-palmitoyl-2-oleoyl-sn-glycero-3-phosphocholine as substrate pretreated for 20 mins followed by substrate addition and measured after 60 mins
T2 sequence (whole entry): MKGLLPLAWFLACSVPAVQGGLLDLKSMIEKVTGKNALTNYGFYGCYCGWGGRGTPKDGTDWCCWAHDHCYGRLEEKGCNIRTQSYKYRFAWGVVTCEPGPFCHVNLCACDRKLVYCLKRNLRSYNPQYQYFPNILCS

[3] = molecular target: T3, Phospholipase A2, membrane associated (Homo sapiens) (UniProt P14555); test: Inhibition of recombinant human sPLA2-2A expressed in Escherichia coli BL21(DE3) at 30 uM using 1-palmitoyl-2-oleoyl-sn-glycero-3-phosphocholine as substrate pretreated for 20 mins followed by substrate addition and measured after 60 mins
T3 sequence (whole entry): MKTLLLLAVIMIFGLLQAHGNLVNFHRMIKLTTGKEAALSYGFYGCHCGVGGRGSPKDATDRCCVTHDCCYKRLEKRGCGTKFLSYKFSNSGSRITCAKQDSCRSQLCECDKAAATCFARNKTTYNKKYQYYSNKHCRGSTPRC

[4] = molecular target: T1, Group 10 secretory phospholipase A2; test: Inhibition of recombinant human sPLA2-10 expressed in Escherichia coli BL21(DE3) using HDL as substrate pretreated for 20 mins followed by substrate addition and measured after 60 mins
[5] = molecular target: T4, Phospholipase A2, membrane associated (Homo sapiens, UniProt P14555); test: Inhibition of recombinant human sPLA2-2A expressed in Escherichia coli BL21(DE3) using 1-palmitoyl-2-oleoyl-sn-glycero-3-phosphocholine as substrate pretreated for 20 mins followed by substrate addition and measured after 60 mins
T4 sequence (P14555 whole entry): T3 sequence (whole entry)

[6] = molecular target: T5, Group 10 secretory phospholipase A2 (Homo sapiens) (UniProt O15496); test: as §1
T5 sequence (whole entry): T1 sequence (O15496 whole entry)

Phospholipase A2 group V = molecular target: T6, Phospholipase A2 group V (Homo sapiens, UniProt P39877); test: Inhibition of recombinant human sPLA2-5 expressed in Escherichia coli BL21(DE3) using 1-palmitoyl-2-oleoyl-sn-glycero-3-phosphocholine as substrate pretreated for 20 mins followed by substrate addition and measured after 60 mins
T6 sequence (P39877 whole entry): T2 sequence (whole entry)

[7] = Clearance in Sprague-Dawley rat at 1 µmol/kg, iv by LC/MS analysis; details: in vivo
[8] = AUC in Sprague-Dawley rat at 1 µmol/kg, iv by LC/MS analysis; details: in vivo
[9] = Clearance in Beagle dog at 1 µmol/kg, iv by LC/MS analysis; details: in vivo
[10] = Intrinsic clearance in human hepatocytes assessed per million cells at 1 uM measured after 2 to 60 mins; assay type: ADME, cell-based, Hepatocyte; details: read-out: CLH
[11] = Oral bioavailability in Sprague-Dawley rat at 4 µmol/kg administered via gavage by LC/MS analysis; details: in vivo
[12] = AUC in Sprague-Dawley rat at 4 µmol/kg, po administered via gavage by LC/MS analysis; details: in vivo
[13] = AUC in Beagle dog at 1 µmol/kg, iv by LC/MS analysis; details: in vivo
[14] = Volume of distribution at steady state in Sprague-Dawley rat at 1 µmol/kg, iv by LC/MS analysis; details: in vivo, read-out: Vdss
[15] = Volume of distribution at steady state in Beagle dog at 1 µmol/kg, iv by LC/MS analysis; details: in vivo, read-out: Vdss
[16] = molecular target: T7, Group 10 secretory phospholipase A2 (Mus musculus, UniProt Q9QXX3); test: Inhibition of mouse sPLA2-10 using 1-palmitoyl-2-oleoyl-sn-glycero-3-phosphocholine as substrate pretreated for 20 mins followed by substrate addition and measured after 60 mins
T7 sequence (Q9QXX3 whole entry): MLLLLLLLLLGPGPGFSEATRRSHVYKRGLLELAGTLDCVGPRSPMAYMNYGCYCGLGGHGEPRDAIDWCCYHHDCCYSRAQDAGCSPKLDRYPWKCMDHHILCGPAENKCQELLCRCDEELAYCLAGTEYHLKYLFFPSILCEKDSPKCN

NC(=O)c1cc2ccccc2n1-c1cccc(C(=O)O)c1
IC50 [1]: 29.1 µM

NC(=O)c1cc2ccccc2n1-c1cccc(OCC(=O)O)c1
IC50 [1]: 26.9 µM

Cc1cccc2cc(C(N)=O)n(-c3cccc(CCC(=O)O)c3)c12
inhibition [2]: inactive | IC50 [1]: 1.9 µM | inhibition [3]: inactive

CS(=O)(=O)NC(=O)CCc1cccc(-n2c(C(N)=O)cc3ccccc32)c1
IC50 [1]: 4.8 µM

Cc1ccc2c(c1)cc(C(N)=O)n2-c1cccc(CCC(=O)O)c1
IC50 [1]: 2.7 µM

NC(=O)c1cc2ccccc2n1-c1cccc(C(F)(F)F)c1
IC50 [1]: 6.9 µM

NC(=O)c1cc2ccccc2n1Cc1cccc(C(=O)O)c1
IC50 [1]: 20.7 µM

NC(=O)c1cc2ccc(OCC(F)(F)F)cc2n1-c1cccc(CCC(=O)O)c1
inhibition [2]: inactive | IC50 [4]: 0.74 µM | IC50 [1]: 0.093 µM | IC50 [5]: > 10 µM

NC(=O)c1cc2cccnc2n1-c1cccc(CCC(=O)O)c1
inhibition [6]: inactive

CCc1c(C(=O)C(N)=O)c2c(OCC(=O)O)cccc2n1Cc1ccccc1 [VARESPLADIB]
IC50 (Phospholipase A2 group V): 0.124 µM

NC(=O)c1cc2ccc(Cl)cc2n1-c1cccc(CCC(=O)O)c1
inhibition [2]: inactive | IC50 [4]: 1.1 µM | IC50 [1]: 0.09 µM | IC50 [5]: 5.7 µM

CCc1ccc2cc(C(N)=O)n(-c3cccc(CCC(=O)O)c3)c2c1
inhibition [2]: inactive | IC50 [1]: 0.17 µM | IC50 [5]: 4.4 µM

Cc1cccc2c1cc(C(N)=O)n2-c1cccc(CCC(=O)O)c1
IC50 [1]: 0.83 µM

NC(=O)c1nc2ccccn2c1-c1cccc(CCC(=O)O)c1
inhibition [6]: inactive

NC(=O)c1cc2ccc(OC(F)(F)F)cc2n1-c1cccc(CCC(=O)O)c1
clearance [7]: 0.546 L/h/kg | AUC [8]: 1.84 µM·h | clearance [9]: 0.045 L/h/kg | hepatocyte CLint at 1 µM [10]: 1.7 µL/min/1e6 cells | IC50 (Phospholipase A2 group V): 2.23 µM | IC50 [4]: 0.27 µM | IC50 [1]: 0.026 µM | bioavailability [11]: 100% | AUC [12]: 11 µM·h | AUC [13]: 8.78 µM·h | Vd [14]: 2.54 L/kg | Vd [15]: 0.44 L/kg | IC50 [5]: 0.31 µM | IC50 [16]: 0.096 µM

NC(=O)c1cc2ccc(C3CC3)cc2n1-c1cccc(CCC(=O)O)c1
IC50 (Phospholipase A2 group V): > 10 µM | IC50 [4]: 1.9 µM | IC50 [1]: 0.16 µM | IC50 [5]: 2.3 µM

NC(=O)c1cc2ccc(C(F)(F)F)cc2n1-c1cccc(CCC(=O)O)c1
IC50 (Phospholipase A2 group V): 3.7 µM | IC50 [4]: 0.48 µM | IC50 [1]: 0.043 µM | IC50 [5]: 0.89 µM

NC(=O)c1cc2ccc(OC(F)F)cc2n1-c1cccc(CCC(=O)O)c1
inhibition [2]: inactive | IC50 [4]: 0.37 µM | IC50 [1]: 0.068 µM | IC50 [5]: 3.6 µM

NC(=O)c1cc2ccccc2n1-c1cccc(CC(=O)O)c1
IC50 [1]: 10.3 µM

NC(=O)c1cccn1-c1cccc(CCC(=O)O)c1
inhibition [6]: inactive

NC(=O)c1cc2ccc(CO)cc2n1-c1cccc(CCC(=O)O)c1
inhibition [2]: inactive | IC50 [1]: 2.8 µM | inhibition [3]: inactive

NC(=O)c1cc2ccccc2n1-c1ccccc1
IC50 [1]: > 30 µM

N#Cc1ccc2cc(C(N)=O)n(-c3cccc(CCC(=O)O)c3)c2c1
inhibition [2]: inactive | IC50 [4]: 0.99 µM | IC50 [1]: 0.11 µM | IC50 [5]: 3.9 µM

NC(=O)c1cc2ccsc2n1-c1cccc(CCC(=O)O)c1
inhibition [6]: inactive

NC(=O)c1cc2ccccc2n1-c1cccc(/C=C/C(=O)O)c1
IC50 [1]: 23.6 µM

NC(=O)c1cc2sccc2n1-c1cccc(CCC(=O)O)c1
inhibition [6]: inactive

NC(=O)c1cc2ccccc2n1-c1cccc(CCC(=O)O)c1
inhibition [2]: inactive | IC50 [1]: 0.99 µM | inhibition [3]: inactive

COc1ccc2cc(C(N)=O)n(-c3cccc(CCC(=O)O)c3)c2c1
inhibition [2]: inactive | IC50 [1]: 0.62 µM | inhibition [3]: inactive

NC(=O)c1cc2ccc(F)cc2n1-c1cccc(CCC(=O)O)c1
inhibition [2]: inactive | IC50 [1]: 0.26 µM | inhibition [3]: inactive

Cc1ccc2cc(C(N)=O)n(-c3cccc(CCC(=O)O)c3)c2c1
inhibition [2]: inactive | IC50 [1]: 0.23 µM | inhibition [3]: inactive

NC(=O)CCc1cccc(-n2c(C(N)=O)cc3ccccc32)c1
IC50 [1]: > 30 µM

NC(=O)c1cc2ccccc2n1-c1cccc(C(=O)NCC(=O)O)c1
IC50 [1]: 7.2 µM
